Three molecules from patent US20010023259A1, “Conjugated fatty acids and related compounds” (Natural ASA, priority 1999, published 2001) can be followed below.

This test deals with Spirulina platensis (Arthrospira sp.) PCC8005. Description: Incubation of fatty acid substrates with S. platensis; fatty acid composition of extracted lipids by GC. Type of test: cell-based. Particulars: for 6,9,11 - 18:3 (desaturated metabolite), fatty acid composition of lipids extracted from S. platensis / 9,11 - 18:2 (substrate taken up), fatty acid composition of lipids extracted from S. platensis / Amount, total weight of lipid in extract / linoleic acid 18:2, fatty acid composition of lipids extracted from S. platensis / linolenic acid 18:3 (n-6), fatty acid composition of lipids extracted from S. platensis / oleic acid 18:1, fatty acid composition of lipids extracted from S. platensis / palmitic acid 16:0, fatty acid composition of lipids extracted from S. platensis / palmitoleic acid 16:1, fatty acid composition of lipids extracted from S. platensis / stearic acid 18:0, fatty acid composition of lipids extracted from S. platensis: incubation with added 9-cis,11-trans-octadecadienoic acid. On the procedure: Spirulina platensis (Arthrospira sp.) PCC8005 was grown in Zabrouk's medium in 50 ml batch culture in 100 ml erlenmeyer flasks at 30° C. with illumination of 50 μmol photons m^-2 […]. Cultures were harvested following 5 days growth by centrifugation at 40,000 g in a […] rotor in a Beckman Avanti centrifuge 20 minutes, cooled rotor @4° C. The algal pellet was carefully resuspended in fresh Zabrouk's medium under aseptic conditions. Initial time-course experiments were carried out by resuspending the algal pellet in 50 ml fresh medium, which was then divided into 10 ml aliquots, each containing 0.5 ml of 1.8mM ammonium fatty acid substrate and incubating under the above conditions. Control cultures incubated without linoleate were also set up. […] The algal pellet was washed four times in 50 ml freshly drawn MilliQ water and then freeze dried prior to analyses. In later experiments where bulk material was required for a more detailed analysis of the metabolite produced, 4×50 ml cultures were grown and harvested as above. […] Following this incubation the algal material was pelleted, washed and freeze dried as described above. […] The latter were converted to the picolinyl ester derivatives by the procedure of Balazy and Nies, Biomed. Environ. […] The temperature of both the injector and detector was 250° C. Hydrogen was the carrier gas. The analyses were performed with a column (fused silica capillary) coated with carbowax (Chrompack UK Ltd, London, 30 m×[…] i.d.). The oven temperature was programmed from 170 to 220° C. at 4° C./min.

For the molecule `CCCCC/C=C\C=C\CCCCCCCCC(=O)O` [10-t,12-c-octadecadienoic acid], the “metabolite formed, share of the conjugated acids” value (96 hours incubation) is 18 % of the conjugated acids. Also, the “metabolite formed, share of the total fatty acids” value (96 hours incubation, GC retention time expected for 6-c,10-t,12-c-octadecatrienoic acid) is 6.4 % of the total fatty acids. Further, the “incorporation into the lipids of S. platensis” value (shortened to “incorporation into the lipids”) (substrate added exogenously) is recorded as “rapidly incorporated”.
In the case of `CCCCCC/C=C/C=C\CCCCCCCC(=O)O` [CLA, 9-cis,11-trans-octadecadienoic acid], the “recovered CLA isomer converted to the desaturated metabolite” value (after 24 hours) came to 13%. For the same molecule, where the note is “at 24 hrs”, the “compound taken up from the surrounding medium, share of lipid” value was 27.8 % of lipid. The “time at which plateau level of the 6,9,11 tri-unsaturated fatty acid is attained” value (conversion of the di-unsaturated compound) is “about 72 hours”. The “change of relative proportion of oleate with time” value (extracts incubated with the CLA isomer, 0-96 h) was “increased four fold”. Under “0h”, the “6,9,11 - 18:3 (desaturated metabolite), fatty acid composition of lipids extracted from S. platensis” value (shortened to “6,9,11 - 18:3 (desaturated metabolite)”) amounted to 0.0 wt %; the “9,11 - 18:2 (substrate taken up), fatty acid composition of lipids extracted from S. platensis” value (from here on “9,11 - 18:2 (substrate taken up)”) is reported as 0.0 wt %; the “Amount, total weight of lipid in extract” value was found to be 85.3 µg; the “linoleic acid 18:2, fatty acid composition of lipids extracted from S. platensis” value worked out at 11.7 wt %. Besides, where the note is “0h”, the “linolenic acid 18:3 (n-6), fatty acid composition of lipids extracted from S. platensis” value came to 32.2 wt %; the “oleic acid 18:1, fatty acid composition of lipids extracted from S. platensis” value (shortened to “oleic acid 18:1, fatty acid composition”) turned out to be 4.9 wt %; the “palmitic acid 16:0, fatty acid composition of lipids extracted from S. platensis” value was 42.0 wt %; the “palmitoleic acid 16:1, fatty acid composition of lipids extracted from S. platensis” value stood at 6.5 wt %. For the same molecule, where the note is “0h”, the “stearic acid 18:0, fatty acid composition of lipids extracted from S. platensis” value is recorded as 2.6 wt %. Under “24h”, the “6,9,11 - 18:3 (desaturated metabolite)” value is on record as 4.1 wt %; the “9,11 - 18:2 (substrate taken up)” value is recorded as 27.8 wt %; the “Amount, total weight of lipid in extract” value is 170.3 µg; the “linoleic acid 18:2, fatty acid composition of lipids extracted from S. platensis” value is 8.2 wt %. Also, for the setting “24h”, the “linolenic acid 18:3 (n-6), fatty acid composition of lipids extracted from S. platensis” value is reported as 19.5 wt %; the “oleic acid 18:1, fatty acid composition” value came to 4.0 wt %; the “palmitic acid 16:0, fatty acid composition of lipids extracted from S. platensis” value worked out at 30.7 wt %; the “palmitoleic acid 16:1, fatty acid composition of lipids extracted from S. platensis” value is 4.7 wt %. Further, under “24h”, the “stearic acid 18:0, fatty acid composition of lipids extracted from S. platensis” value is recorded as 0.9 wt %. In addition, for the setting “48h”, the “6,9,11 - 18:3 (desaturated metabolite)” value was 5.1 wt %; the “9,11 - 18:2 (substrate taken up)” value amounted to 21.2 wt %; the “Amount, total weight of lipid in extract” value came to 188.3 µg; the “linoleic acid 18:2, fatty acid composition of lipids extracted from S. platensis” value is given as 6.9 wt %. For the setting “48h”, the “linolenic acid 18:3 (n-6), fatty acid composition of lipids extracted from S. platensis” value came out at 19.0 wt %; the “oleic acid 18:1, fatty acid composition” value came out at 8.6 wt %; the “palmitic acid 16:0, fatty acid composition of lipids extracted from S. platensis” value was found to be 32.7 wt %; the “palmitoleic acid 16:1, fatty acid composition of lipids extracted from S. platensis” value was determined as 5.3 wt %. The “stearic acid 18:0, fatty acid composition of lipids extracted from S. platensis” value (48h) is reported as 1.2 wt %. In addition, where the note is “72h”, the “6,9,11 - 18:3 (desaturated metabolite)” value was 5.7 wt %; the “9,11 - 18:2 (substrate taken up)” value came out at 16.2 wt %; the “Amount, total weight of lipid in extract” value worked out at 211.8 µg; the “linoleic acid 18:2, fatty acid composition of lipids extracted from S. platensis” value is listed as 4.9 wt %. For the same molecule, where the note is “72h”, the “linolenic acid 18:3 (n-6), fatty acid composition of lipids extracted from S. platensis” value stood at 16.5 wt %; the “oleic acid 18:1, fatty acid composition” value came to 15.4 wt %; the “palmitic acid 16:0, fatty acid composition of lipids extracted from S. platensis” value was determined as 34.3 wt %; the “palmitoleic acid 16:1, fatty acid composition of lipids extracted from S. platensis” value was found to be 5.4 wt %. For the same molecule, the “stearic acid 18:0, fatty acid composition of lipids extracted from S. platensis” value (72h) is recorded as 1.7 wt %. Moreover, where the note is “96h”, the “6,9,11 - 18:3 (desaturated metabolite)” value came out at 5.8 wt %; the “9,11 - 18:2 (substrate taken up)” value is 10.5 wt %; the “Amount, total weight of lipid in extract” value was determined as 166.2 µg; the “linoleic acid 18:2, fatty acid composition of lipids extracted from S. platensis” value came out at 3.9 wt %. Further, for the setting “96h”, the “linolenic acid 18:3 (n-6), fatty acid composition of lipids extracted from S. platensis” value turned out to be 15.1 wt %; the “oleic acid 18:1, fatty acid composition” value was found to be 21.6 wt %; the “palmitic acid 16:0, fatty acid composition of lipids extracted from S. platensis” value amounted to 35.4 wt %; the “palmitoleic acid 16:1, fatty acid composition of lipids extracted from S. platensis” value was found to be 5.7 wt %. Further, the “stearic acid 18:0, fatty acid composition of lipids extracted from S. platensis” value (96h) was found to be 1.9 wt %. For the same molecule, the “incorporation into the lipids” value (substrate added exogenously) is listed as “rapidly take up the compound”.
As for `CCCCCC#CCC=CCCCCCCCC(=O)O` [Crepenynic acid, octadeca-9-en-12-ynoic acid], the “C20 homologue formed by chain elongation in the total fatty acids” value (96 hours incubation) was “detected”. Under “substrate added exogenously”, the “desaturation in position 6 by S. platensis” value is listed as “converted to a dehydro-metabolite” and the “incorporation into the lipids” value is listed as “taken up”.
